# Data as given in PMC9330476 (Toxins, 2022).
# Entries after “also recorded” stand apart in the source; their conditions may differ. Bridge positions count the residues as written; N and C are the ends. Ends that are not written are not given here. I, II: the chains in the order shown.
# Columns and labels:
# hα7 nAChR = hα7 nAChR (Homo sapiens, UniProt P36544); format: cell-based
# hα4β2 nAChR = hα4β2 nAChR (Homo sapiens, UniProt P17787+P43681); format: cell-based
# hα4β2 nAChR, sequence (P43681 29-627 limits assumed): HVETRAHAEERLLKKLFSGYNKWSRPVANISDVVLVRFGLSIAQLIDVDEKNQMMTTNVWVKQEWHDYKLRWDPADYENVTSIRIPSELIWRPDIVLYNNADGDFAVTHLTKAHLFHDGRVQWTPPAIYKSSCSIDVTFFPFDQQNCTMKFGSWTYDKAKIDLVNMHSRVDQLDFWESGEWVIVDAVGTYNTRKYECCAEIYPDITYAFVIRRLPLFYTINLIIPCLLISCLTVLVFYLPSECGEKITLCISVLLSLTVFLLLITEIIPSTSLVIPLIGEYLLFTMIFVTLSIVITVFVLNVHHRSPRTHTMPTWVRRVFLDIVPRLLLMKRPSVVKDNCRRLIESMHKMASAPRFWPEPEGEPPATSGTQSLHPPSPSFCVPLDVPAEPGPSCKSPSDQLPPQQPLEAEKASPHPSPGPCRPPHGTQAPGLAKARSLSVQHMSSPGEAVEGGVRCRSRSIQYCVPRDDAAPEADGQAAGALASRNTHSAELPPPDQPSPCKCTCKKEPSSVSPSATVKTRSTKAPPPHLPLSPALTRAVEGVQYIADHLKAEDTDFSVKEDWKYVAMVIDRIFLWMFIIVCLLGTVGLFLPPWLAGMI
# hα4β2 nAChR, sequence (P17787 26-502 limits assumed): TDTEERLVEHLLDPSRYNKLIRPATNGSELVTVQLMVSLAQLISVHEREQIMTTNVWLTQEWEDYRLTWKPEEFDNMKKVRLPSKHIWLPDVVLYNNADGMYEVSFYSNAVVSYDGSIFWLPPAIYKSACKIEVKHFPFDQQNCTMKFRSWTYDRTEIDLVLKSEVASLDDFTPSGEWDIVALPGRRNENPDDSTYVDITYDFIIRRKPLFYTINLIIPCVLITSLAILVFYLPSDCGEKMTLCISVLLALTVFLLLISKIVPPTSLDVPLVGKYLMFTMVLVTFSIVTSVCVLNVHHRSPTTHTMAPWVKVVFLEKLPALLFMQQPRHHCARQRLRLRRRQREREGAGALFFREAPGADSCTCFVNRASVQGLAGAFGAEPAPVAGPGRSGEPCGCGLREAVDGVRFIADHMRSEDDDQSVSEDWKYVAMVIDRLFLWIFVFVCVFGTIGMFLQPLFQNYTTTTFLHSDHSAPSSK
# hα7 nAChR, sequence (P36544 23-502 limits assumed): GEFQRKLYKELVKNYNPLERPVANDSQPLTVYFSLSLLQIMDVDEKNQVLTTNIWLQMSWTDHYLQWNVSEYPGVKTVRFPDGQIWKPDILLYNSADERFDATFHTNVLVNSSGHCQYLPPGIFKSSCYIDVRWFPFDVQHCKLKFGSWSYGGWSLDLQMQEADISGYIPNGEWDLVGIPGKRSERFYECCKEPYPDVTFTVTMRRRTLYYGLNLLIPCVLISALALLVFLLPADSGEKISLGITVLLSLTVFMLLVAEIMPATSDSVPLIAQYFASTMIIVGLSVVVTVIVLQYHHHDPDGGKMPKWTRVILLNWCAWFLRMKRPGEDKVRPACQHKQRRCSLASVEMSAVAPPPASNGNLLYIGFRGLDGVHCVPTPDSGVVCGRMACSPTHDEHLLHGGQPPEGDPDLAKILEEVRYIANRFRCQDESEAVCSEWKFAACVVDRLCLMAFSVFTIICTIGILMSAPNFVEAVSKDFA
substance,measurement,setting,value
"I: EARITCQPRGRSKWGRCCLTQMCGNYCCYKHGCRCVYHSWRGHGCSC / II: EARITCQPRGRSKWGRCCLTQMCGNYCCYKHGCRCVYHSWRGHGCSC (disulfide I:6-II:18, I:17-I:27, I:18-II:6, I:23-I:35, I:28-I:45, I:33-I:47, II:17-II:27, II:23-II:35, II:28-II:45, II:33-II:47) [αD-FrXXA]",dissociation / reversibility on hα7,hα7 nAChR,the slower dissociation was for hα7 subtype (almost irreversible)
same,dissociation / reversibility on hα4β2,hα4β2 nAChR,the fastest was for hα4β2 subtype; also recorded: reversible almost entirely within a few minutes of washing
